Reference: patent publication US20220305019A1, “PARAXANTHINE-BASED COMPOSITIONS FOR PROMOTING WEIGHT LOSS” (Ingenious Ingredients, LP, priority 2021, published 2022)

Tests used:
Type in all cases: in vivo, human
[1] = Appetite visual analog scale (VAS) after oral ingestion, crossover, two participants; conditions: 200 mg CA; for Appetite Visual Analog Scale MEAN: mean 30-180 min
Method: All supplements were orally ingested with 8 fluid ounces of cold tap water. The order of administration for all interventions was randomized using a random allocation software to ensure randomization and to avoid order effects. […] All study visits took place between 0600-1000 hours. At least 72 hours of rest will take place between each condition.

[2] = Swagger visual analog scale (VAS) after oral ingestion, crossover, two participants; conditions: 200 mg Caffeine
Method: (§1) All supplements were orally ingested with 8 fluid ounces of cold tap water. The order of administration for all interventions was randomized using a random allocation software to ensure randomization and to avoid order effects. After ingestion, participants completed all assessments in an identical fashion 30, 60, 90, 120, and 180 minutes after ingestion of their assigned supplement. All study visits took place between 0600-1000 hours. At least 72 hours of rest took place between each condition.

[3] = Confidence visual analog scale (VAS) after oral ingestion, crossover, two participants; design: Confidence (Visual Analog Scale) / Confidence VAS MEAN: scale not given here; conditions: for Confidence (Visual Analog Scale) / Confidence VAS MEAN / Confidence VAS mean Δ vs. 100 mg PX / Confidence VAS mean Δ vs. PLA: 200 mg Caffeine
Method: as §1

Cn1c(=O)c2c(ncn2C)n(C)c1=O [CA, caffeine, reference compound]
reduction in appetite compared to placebo [1]: 2.4%
Appetite Visual Analog Scale ([1]; 30 min, person one): 70
Appetite Visual Analog Scale ([1]; 30 min, person two): 50
Appetite Visual Analog Scale ([1]; 60 min, person one): 100
Appetite Visual Analog Scale ([1]; 60 min, person two): 60
Appetite Visual Analog Scale ([1]; 90 min, person one): 100
Appetite Visual Analog Scale ([1]; 90 min, person two): 61
Appetite Visual Analog Scale ([1]; 120 min, person one): 100
Appetite Visual Analog Scale ([1]; 120 min, person two): 65
Appetite Visual Analog Scale ([1]; 180 min, person one): 100
Appetite Visual Analog Scale ([1]; 180 min, person two): 70
Appetite Visual Analog Scale MEAN ([1]; Average of both): 77.6
Appetite Visual Analog Scale MEAN ([1]; person one): 94.0
Appetite Visual Analog Scale MEAN ([1]; person two): 61.2
Appetite VAS mean Δ vs. 100 mg PX ([1]; person one): +65.0
Appetite VAS mean Δ vs. 300 mg PX ([1]; person one): +66.8
Appetite VAS mean Δ vs. PLA ([1]; person one): −0.2
Appetite VAS mean Δ vs. 100 mg PX ([1]; person two): −12.8
Appetite VAS mean Δ vs. 300 mg PX ([1]; person two): −2.8
Appetite VAS mean Δ vs. PLA ([1]; person two): −12.0
Swagger (Visual Analog Scale) ([2]; 30 min, person one): 64
Swagger (Visual Analog Scale) ([2]; 30 min, person two): 65
Swagger (Visual Analog Scale) ([2]; 60 min, person one): 56
Swagger (Visual Analog Scale) ([2]; 60 min, person two): 62
Swagger (Visual Analog Scale) ([2]; 90 min, person one): 51
Swagger (Visual Analog Scale) ([2]; 90 min, person two): 62
Swagger (Visual Analog Scale) ([2]; 120 min, person one): 61
Swagger (Visual Analog Scale) ([2]; 120 min, person two): 59
Swagger (Visual Analog Scale) ([2]; 180 min, person one): 44
Swagger (Visual Analog Scale) ([2]; 180 min, person two): 69
Swagger VAS mean Δ vs. 100 mg PX ([2]; person one): −31.0
Swagger VAS mean Δ vs. PLA ([2]; person one): −23.4
Swagger VAS MEAN ([2]; person two): 63.4
Swagger VAS mean Δ vs. 100 mg PX ([2]; person two): −10.0
Swagger VAS mean Δ vs. PLA ([2]; person two): +10.0
Confidence (Visual Analog Scale) ([3]; 30 min, person one): 80
Confidence (Visual Analog Scale) ([3]; 30 min, person two): 74
Confidence (Visual Analog Scale) ([3]; 60 min, person one): 91
Confidence (Visual Analog Scale) ([3]; 60 min, person two): 76
Confidence (Visual Analog Scale) ([3]; 90 min, person one): 71
Confidence (Visual Analog Scale) ([3]; 90 min, person two): 66
Confidence (Visual Analog Scale) ([3]; 120 min, person one): 80
Confidence (Visual Analog Scale) ([3]; 120 min, person two): 70
Confidence (Visual Analog Scale) ([3]; 180 min, person one): 90
Confidence (Visual Analog Scale) ([3]; 180 min, person two): 65
Confidence VAS MEAN ([3]; Average of both): 76.3
Confidence VAS MEAN ([3]; person one): 82.4
Confidence VAS mean Δ vs. 100 mg PX ([3]; person one): +0.4
Confidence VAS mean Δ vs. PLA ([3]; person one): +1
Confidence VAS MEAN ([3]; person two): 70.2
Confidence VAS mean Δ vs. 100 mg PX ([3]; person two): +0.2
Confidence VAS mean Δ vs. PLA ([3]; person two): −0.8
effect on confidence ([3]; 200 mg of CA): failed to increase confidence
